Laboratory results from ChEMBL document CHEMBL1152966, “Synthesis of 2alpha-propoxy-1alpha,25-dihydroxyvitamin D3 and comparison of its metabolism by human CYP24A1 and rat CYP24A1” (Bioorg Med Chem, 2009).

How the values were obtained:
[1] = target: T1, Vitamin D-binding protein (Homo sapiens) (UniProt P02774); test: Binding affinity to vitamin D-binding protein relative to 1-alpha,25-dihydroxyvitamin D3
T1 sequence (whole entry): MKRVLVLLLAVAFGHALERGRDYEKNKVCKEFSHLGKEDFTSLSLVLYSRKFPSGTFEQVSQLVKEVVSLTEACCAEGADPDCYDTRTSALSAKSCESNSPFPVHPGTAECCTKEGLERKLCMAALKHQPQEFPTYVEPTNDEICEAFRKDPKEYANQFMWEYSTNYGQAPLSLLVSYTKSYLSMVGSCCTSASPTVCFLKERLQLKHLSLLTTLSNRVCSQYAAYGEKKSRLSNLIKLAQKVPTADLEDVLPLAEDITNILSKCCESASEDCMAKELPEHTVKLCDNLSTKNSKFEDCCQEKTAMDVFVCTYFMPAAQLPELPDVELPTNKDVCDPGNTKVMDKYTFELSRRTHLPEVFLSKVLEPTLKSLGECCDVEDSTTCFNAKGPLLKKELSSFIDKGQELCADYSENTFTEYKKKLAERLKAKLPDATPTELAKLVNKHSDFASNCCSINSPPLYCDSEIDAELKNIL

[2] = target: T2, Vitamin D3 receptor (Bos taurus) (UniProt Q28037); test: Binding affinity to bovine thymus VDR relative to 1-alpha,25-dihydroxyvitamin D3
T2 sequence (whole entry): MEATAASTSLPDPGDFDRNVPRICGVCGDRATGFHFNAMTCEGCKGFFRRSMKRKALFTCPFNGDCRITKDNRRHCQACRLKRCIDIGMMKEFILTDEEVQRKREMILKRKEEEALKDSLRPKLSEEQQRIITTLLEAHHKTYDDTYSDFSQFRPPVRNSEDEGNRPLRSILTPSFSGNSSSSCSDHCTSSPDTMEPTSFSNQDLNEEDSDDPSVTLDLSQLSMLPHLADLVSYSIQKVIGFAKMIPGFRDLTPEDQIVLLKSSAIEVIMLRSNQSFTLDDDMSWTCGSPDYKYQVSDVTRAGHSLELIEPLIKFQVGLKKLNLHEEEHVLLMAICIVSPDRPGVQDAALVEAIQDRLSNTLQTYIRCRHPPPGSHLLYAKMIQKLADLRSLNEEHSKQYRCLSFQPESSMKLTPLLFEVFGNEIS

[3] = target: T3, 1,25-dihydroxyvitamin D(3) 24-hydroxylase, mitochondrial (Homo sapiens, UniProt Q07973); test: Binding affinity to human CYP24A1 expressed in Escherichia coli assessed as catalytic efficiency after 60 mins relative 1-alpha,25-dihydroxyvitamin D3; conditions: 1 h
T3 sequence (Q07973 whole entry): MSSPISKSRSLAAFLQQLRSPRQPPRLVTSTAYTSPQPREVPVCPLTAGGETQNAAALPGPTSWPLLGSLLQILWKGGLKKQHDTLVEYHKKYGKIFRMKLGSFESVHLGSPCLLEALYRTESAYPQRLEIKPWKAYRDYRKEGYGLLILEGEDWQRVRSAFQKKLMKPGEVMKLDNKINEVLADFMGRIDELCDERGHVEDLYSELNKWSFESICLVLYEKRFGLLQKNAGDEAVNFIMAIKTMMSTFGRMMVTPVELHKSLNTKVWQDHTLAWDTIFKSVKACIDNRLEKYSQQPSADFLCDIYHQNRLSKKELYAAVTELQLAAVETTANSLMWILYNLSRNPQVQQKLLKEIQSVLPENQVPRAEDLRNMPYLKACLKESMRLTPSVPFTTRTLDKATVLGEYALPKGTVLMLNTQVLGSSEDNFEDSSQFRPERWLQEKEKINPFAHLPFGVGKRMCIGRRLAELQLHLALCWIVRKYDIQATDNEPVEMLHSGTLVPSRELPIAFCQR

[4] = target: T2, Vitamin D3 receptor (Bos taurus); test: Displacement of [3H]1-alpha,25-dihydroxyvitamin D3 from calf thymus VDR by liquid scintillation counting

Activity [1] | Activity [2] | Activity [3] | Activity [4] | SMILES
2 | 13% | – | – | C=C1/C(=C\C=C2/CCC[C@]3(C)[C@@H]([C@H](C)CCCC(C)(C)O)CC[C@@H]23)C[C@H](O)[C@H](OCCCO)[C@H]1O
– | 180% | 2% | 180% | C=C1/C(=C\C=C2/CCC[C@]3(C)[C@@H]([C@H](C)CCCC(C)(C)O)CC[C@@H]23)C[C@H](O)[C@@H](OCCCO)[C@H]1O
– | 64% | – | – | C=C1/C(=C\C=C2/CCC[C@]3(C)[C@@H]([C@H](C)CCCC(C)(C)O)CC[C@@H]23)C[C@H](O)[C@@H](OCCC)[C@H]1O
